Square brackets hold non-standard residues; d marks the D form. Ends that are not written are not given here.
How the values were obtained:
Type in all cases: cell-based
[1] = system: Hela cells stably transfected with mCherry and GFP1-10; experiment: Split GFP assay (GFP-11 delivery); details: for GFP fluorescence above background / GFP fluorescence level: 10 μM; for GFP-11 delivery: all concentrations and temperatures studied
Protocol: To test the ability of CPPs to deliver other cargoes, specifically a protease-sensitive peptide cargo, we modified the well-known split-GFP assay. CPPs were tested for the ability to deliver the polar 16-residue GFP-11 peptide across the membrane barrier. This peptide rescues the fluorescence of the cytosolic endogenous, non-fluorescent GFP1-10 protein. Here, we stably transfected Hela cells with a plasmid containing the full length mCherry and the non-fluorescent GFP1-10. Following incubation with CPP-GFP-11 constructs at multiple concentrations and temperatures for 30 minutes in serum free DMEM, cells were analyzed by flow cytometry for mCherry and GFP fluorescence (FIG. 17). Live cells expressing mCherry (˜50% of the total cells) were gated and their GFP fluorescence was analyzed. Unlike the luciferase splice correction assay where a single corrected mRNA transcript serves as template for many molecules of functional luciferase, the split GFP assay is stoichiometric; a single GFP-11 peptide can bind to a single GFP1-10 protein producing a finite fluorescent response.
Hela cells were transfected with p_mCherry-GFP1-10 (Addgene plasmid #78591) using LIPOFECTAMINE® 3000 (ThermoFisher). Single mCherry positive cells were sorted into 96-well plates using a BD™ FACSARIA™ cell sorter and colonies were maintained under G418 selection at […]. Stably transfected cells were plated in 12-well plates at 100,000 cells/well and grown overnight in complete DMEM. Cells were washed in PBS and incubated in 500 μl of CPP-GFP-11 solution at variable concentrations at 23° C. and 37° C. for 30 minutes. The CPP-GFP-11 solution was aspirated and 100 μl of 0.025% trypsin solution was added to each well. After detachment, cells were suspended in 500 μL of PBS+2% FBS and 20 mM HEPES. Cells were analyzed using a BD™ LSRII flow cytometer. Cells displaying a normal morphology were gated and first analyzed for mCherry fluorescence using the 543 nM laser. mCherry+ cells were used to generate a histogram of GFP fluorescence measured with the 488 nM laser.

Hela pTRE-LucIVS2 cells = experiment: ALAMARBLUE toxicity assay of CPP-PNA705; details: 10 μM CPP-PNA705 conjugate, after 24 hours
Protocol: CPP-PNA705 cytotoxicity was assessed using several methods known in the art. A Lactate Dehydrogenase (LDH) assay (FIG. 5A) measured the acute cytotoxicity and detects LDH released by cells because of membrane damage resulting from exposure to the CPPs. An ALAMARBLUE® assay (FIG. 5B) and a Bicinchoninic Acid (BCA) Assay (FIG. 5C) both measure the impact of exposure after 24 hours. In the ALAMARBLUE®, assay some reduction in metabolic activity was detected in Hela705 cells treated with 20 μM CPP-PNA705 concentrations for 1 hour.
Hela pTRE-LucIVS2 cells were plated in 96-well plates at 10,000 cells/well. After 24 hours, cells were treated with CPP constructs for 1 Hr in sfDMEM at 37° C., washed in PBS, and allowed to recover for 24 hours in 100 μl complete media. 10 μl ALAMARBLUE® (ThermoFisher) was added to each well and cells were incubated fo4r 2 Hrs at 37° C. Reduction of ALAMARBLUE® was determined by fluorescence at […].

[2] = system: HeLa, RAW264.7, HepG2, and MCF-7 cells; experiment: TAMRA delivery assay (flow cytometry, confocal microscopy); details: 0.5 μM CPP-TA + 4.5 μM CPP-C, 30 minutes at 4° C., 22° C., or 37° C.
Protocol: To determine the effect of the PNA cargo on delivery, we labeled CPPs, lacking the PNA705 cargo, with the fluorophore TAMRA on a C-terminal cysteine residue (CPP-TA) and measured delivery to multiple cell types. TAMRA-labelled CPPs, mixed with unlabeled CPPs at a 1:10 ratio in serum-free DMEM for a final concentration of 5 μM total peptide, was added to HeLa, RAW264.7, HepG2, and MCF-7 cells in 12-well cell culture plates and incubated for 30 minutes at 4° C., 22° C., or 37° C. prior to flow cytometric analysis (FIGS. 9-16). […] Delivery of TAMRA was verified by confocal microscopy for each cell type.
Hela, RAW264.7, HCT116, HepG2, and MCF-7 cells were plated in 12-well plates at 100,000 cells/well. After 24 hours, cells were gently washed in PBS, topped with 500 μl of CPP-TA solution containing 0.5 μM CPP-TA+4.5 uM CPP-C in sfDMEM without phenol red, and incubated for 30 min at either 4° C., 23° C., or 37° C. The incubation solution was aspirated and cells were treated with 100 μl 0.025% Trypsin for 3 minutes at 23° C. 500 μl DMEM containing 2% FBS, 125 nM Sytox Green, and 20 mM HEPES was used to suspend the cells. Cells were transferred to a filter-topped flow cytometry tube and analyzed on a BD™ LSR II flow cytometer. Cells displaying a normal morphology were gated and first analyzed for GFP fluorescence using the 488 nM laser. GFP negative cells were used to generate a histogram of TAMRA fluorescence, measured with the 543 nM laser.
Cells were treated as described above for the TAMRA delivery assay and immediately imaged to avoid artifacts resulting from fixation. The distribution of TAMRA and Sytox Green was analyzed using a confocal scanning Nikon Eclipse Ti2 inverted microscope using a 40× oil-immersion objective. Sytox Green was excited using the 488 nM laser and TAMRA was excited using the 543 nM laser.

S. aureus = experiment: Radial diffusion in the presence of RBCs; set-up: key: The ↑ represents the improvement in performance that would be desired for a viable in vivo antimicrobial peptide; ↓: The symbol represents a regression in desired behavior; *=p<0.05; **=p<0.01; ***=p<0.001; details: change versus parent sequence; paired t-test
Protocol: Underlay agarose was prepared by adding 5 g of low EEO agarose and 0.03 g of TSB to 500 mL of 10 mM phosphate buffer (pH=7.4). Overlay agarose was prepared by adding 5 g of low EEO agarose and 30 g of TSB to 500 mL of 10 mM phosphate buffer (pH=7.4). Both solutions were heated until the agarose melted and then were autoclaved. To a rectangular, one-well plate, 20 mL of underlay agarose, inoculated with 8×10^6 CFUs of bacteria, was added. A sterile, 96-well plate replicator from Sigma-Aldrich was set in the molten agarose and removed one the agarose solidified. Antibiotic was prepared at 4 times the final desired concentration. For the antibiotic standard, a serial dilution of 3:4 across a 96-well plate was performed followed by 1:4 dilution with PBS. Otherwise, the peptide was diluted to 20 μM with RBCs and/or serum to give between 2% (1×10^8 cells/mL) and 20% (1×10^9 cells/mL). Solutions were incubated with gentle shaking for 30 minutes at 37° C. […]. Overlay was added, and the plate was incubated upside down overnight. Surface growth was cleared, the plates were sterilized with 25% methanol and 5% acetic acid. Zones of inhibition were photographed and analyzed using ImageJ. (FIG. 21)
(§1) The engineered peptide sequences and their derivation from parent sequences is shown, along with the underlying hypothesis described for the first set of peptides (Table 4) and the second set (Table 5). We performed statistical testing for performance in antimicrobial assays in the presence and absence of RBCs, as well as for cytotoxicity. The broth dilution results were tested using a two sample t-test (N=6-22). The radial diffusion results were tested using a paired t-test (N=4). The cytotoxicity results were tested using a paired t-test (N=3). The ↑ represents the improvement in performance that would be desired for a viable in vivo antimicrobial peptide. This corresponds to a decrease in MIC values (increased potency) and decreased cytotoxicity. The symbol represents a regression in desired behavior. (*=p<0.05, **=p<0.01, ***=p<0.001).

human RBCs = experiment: Hemolysis assay; set-up: key: The ↑ represents the improvement in performance that would be desired for a viable in vivo antimicrobial peptide; ↓: The symbol represents a regression in desired behavior; *=p<0.05; **=p<0.01; ***=p<0.001; details: change versus parent sequence; ↑ = improvement (decreased cytotoxicity); paired t-test
Protocol: Peptide was serially diluted in PBS starting at a concentration of 100 μM. The final volume of each peptide in each well was 50 μL. To each well, 50 μL of RBCs in PBS at 2×10^8 cells/mL was added. As a positive lysis control, 1% TRITON™ was used. The mixtures were incubated at 37° C. for 1 hour, after which they were centrifuged at 1000×g for 5 minutes. After centrifugation, 10 μL of supernatant was transferred to 90 μL of DI H2O in a fresh 96-well plate. The absorbance of released hemoglobin at 410 nm was recorded and the fractional hemolysis was calculated based on the 100% and 0% lysis controls. (FIGS. 22, 23, and 26)
as §1

“CPP-1(D)-GFP-11: D-amino acid version of CPP-1 attached to normal L-amino acid GFP-11 ([dR][dK][dK][dR][dW][dF][dR][dR][dR][dR][dP][dK][dW][dK][dK]RDHMVLHEYVNAAGIT)” was tested, and the “D-form CPP versus L-form CPP, GFP-11 delivery” value [1] was “outperformed CPP-1-GFP-11 under all other conditions”.

With “CPP-1-GFP-11: CPP-1 linked to the polar 16-residue GFP-11 peptide (SEQ ID NO: 12) (RKKRWFRRRRPKWKKRDHMVLHEYVNAAGIT)” the “GFP fluorescence above background” value ([1]; 37° C.) was 44% and the “GFP fluorescence above background” value ([1]; room temperature) was 72%.

“CPP-2-GFP-11: CPP-2 linked to the 16-residue GFP-11 peptide (SEQ ID NO: 12) (GRKKRWFRRRRMKWKKRDHMVLHEYVNAAGIT)” was tested, and the “GFP fluorescence level” value [1] was “background fluorescence levels”.

In the case of “CPP-3-GFP-11: CPP-3 linked to the 16-residue GFP-11 peptide (SEQ ID NO: 12) (RIKRRFRRLRPKWKKRDHMVLHEYVNAAGIT)”, the “GFP fluorescence level” value [1] is reported as “background fluorescence levels”.

With GRKKRWFRRRRMKWKK [CPP-2] the “reduction in metabolic activity” value (Hela pTRE-LucIVS2 cells) was 10%, the “GFP-11 delivery” value [1] was “deliver GFP-11 to more cells than Tat and penetratin” and the “TAMRA delivery (words, rank order)” value [2] was “CPP-2»CPP-3=CPP-1>CPP-4>TAT=penetratin”.

With KKGWAKKLAFAFGKK [D-KON] the “Radial Diffusion vs. S. aureus” value (S. aureus) was “↓Radial diffusion vs”.

In the case of RIKRRFRRLRPKWKK [CPP-3], the “reduction in metabolic activity” value (Hela pTRE-LucIVS2 cells) is reported as “little effect”, the “GFP-11 delivery” value [1] is reported as “deliver GFP-11 to more cells than Tat and penetratin” and the “TAMRA delivery (words, rank order)” value [2] is reported as “CPP-2»CPP-3=CPP-1>CPP-4>TAT=penetratin”.

RRGWAFRRALAYGRR [D-GNS2] was tested, and the Hemolysis (human RBCs) was “↓Hemolysis**” and the “Radial Diffusion vs. S. aureus” value (S. aureus) was “↑Radial diffusion vs”.

In the case of RRGWALRLVLAYGRR [RAT3], the Hemolysis (human RBCs) is reported as “↓Hemolysis*”.

With RRGWARRLAFAFAFGRR [RAT6] the Hemolysis (human RBCs) was “↓Hemolysis*”.

With RRGWARRLAFAFGRR [D-RAT4] the “Radial Diffusion vs. S. aureus” value (S. aureus) was “↑Radial Diffusion vs”.

With RRGWARRLAFAFGRR [RAT4] the Hemolysis (human RBCs) was “↑Hemolysis*” and the “Radial Diffusion vs. S. aureus” value (S. aureus) was “↑Radial Diffusion vs”.

For RRGWARRLAFGRR [RAT7], the Hemolysis (human RBCs) was “↑Hemolysis**”.

For RRGWARRLFFAYGRR [D-DBS1], the Hemolysis (human RBCs) was “↓Hemolysis*” and the “Radial Diffusion vs. S. aureus” value (S. aureus) was “↑Radial diffusion vs”.

With RRGWARRLRLAFAFGRR [RAT5] the Hemolysis (human RBCs) was “↓Hemolysis*” and the “Radial Diffusion vs. S. aureus” value (S. aureus) was “↑Radial Diffusion vs”.

RRWARRLFFAYRR [RAT1] was tested, and the “Radial Diffusion vs. S. aureus” value (S. aureus) was “↑Radial Diffusion vs”.

RRWNLALTLTYYRR [RAT2] was tested, and the Hemolysis (human RBCs) was “↓Hemolysis*”.

For “Tat(D)-GFP-11: D-amino acid version of Tat attached to normal L-amino acid GFP-11 (G[dR][dK][dK][dR][dR][dQ][dR][dR][dR][dP][dP][dQ]RDHMVLHEYVNAAGIT) [reference compound]”, the “GFP fluorescence” value ([1]; concentrations lower than 40 μM) was “just above background”.
